The structures appear in SMILES notation. Activity calls are given as the source filed them. No cut-off for these calls is given here.

Experiment [1] concerns KG-1. The experiment is described as follows: Downregulation of YAP1 expression in human KG-1 cells incubated for 48 hrs by Western blot analysis. It counts as functional, cell-based. Conditions: dose 0.5-2.5 µM. Background: A western blot detects proteins with antibodies after separation by electrophoresis.
Experiment [2] relates to U-937. The experiment is described as follows: Induction of apoptosis in human U-937 cells assessed as necrotic cells at 0.5 uM incubated for 48 hrs by Annexin V-FITC/PI staining based flow cytometry (reference value: 2.03 %). It counts as functional. (In general: A flow cytometer gives signals particle by particle.)
In experiment [3] the test system is U-937. The experiment is described as follows: Induction of apoptosis in human U-937 cells assessed as late apoptotic cells at 1 uM incubated for 48 hrs by Annexin V-FITC/PI staining based flow cytometry (reference value: 1.96 %). The class given is functional.
For experiment [4], the system named is U-937. The experiment is described as follows: Induction of apoptosis in human U-937 cells assessed as early apoptotic cells at 2.5 uM incubated for 48 hrs by Annexin V-FITC/PI staining based flow cytometry (reference value: 2.72 %). It counts as functional.
For experiment [5], the system named is U-937. The experiment is described as follows: Induction of apoptosis in human U-937 cells assessed as necrotic cells at 2.5 uM incubated for 48 hrs by Annexin V-FITC/PI staining based flow cytometry (reference value: 2.03 %). The class given is functional.
In experiment [6] the target is Signal transducer and activator of transcription 3 (Homo sapiens) (UniProt P40763). The experiment is described as follows: Inhibition of STAT3 phosphorylation in human U-937 cells at 0.5 to 2.5 uM incubated for 48 hrs by Western blot analysis. It counts as cell-based. Conditions: dose 0.5-2.5 µM.
Experiment [7] shares this target. The experiment is described as follows: Inhibition of STAT3 phosphorylation in human SK-OV-3 cells at 1 to 5 uM incubated for 48 hrs by Western blot analysis. Particulars: dose 1-5 µM. The class given is cell-based.
The subject of experiment [8] is SK-OV-3. The experiment is described as follows: Antitumor activity against human SK-OV-3 cells xenografted in nude mouse assessed as tumor growth suppression at 30 to 60 mg/kg, ip qd treated for 14 days. The class given is functional, organism-based. Conditions: dose 30-60 mg/kg, time 14.0 day. (In general: In xenograft studies the graft and the host belong to different species.)

Signal transducer and activator of transcription 3 (Homo sapiens), sequence (P40763 whole entry): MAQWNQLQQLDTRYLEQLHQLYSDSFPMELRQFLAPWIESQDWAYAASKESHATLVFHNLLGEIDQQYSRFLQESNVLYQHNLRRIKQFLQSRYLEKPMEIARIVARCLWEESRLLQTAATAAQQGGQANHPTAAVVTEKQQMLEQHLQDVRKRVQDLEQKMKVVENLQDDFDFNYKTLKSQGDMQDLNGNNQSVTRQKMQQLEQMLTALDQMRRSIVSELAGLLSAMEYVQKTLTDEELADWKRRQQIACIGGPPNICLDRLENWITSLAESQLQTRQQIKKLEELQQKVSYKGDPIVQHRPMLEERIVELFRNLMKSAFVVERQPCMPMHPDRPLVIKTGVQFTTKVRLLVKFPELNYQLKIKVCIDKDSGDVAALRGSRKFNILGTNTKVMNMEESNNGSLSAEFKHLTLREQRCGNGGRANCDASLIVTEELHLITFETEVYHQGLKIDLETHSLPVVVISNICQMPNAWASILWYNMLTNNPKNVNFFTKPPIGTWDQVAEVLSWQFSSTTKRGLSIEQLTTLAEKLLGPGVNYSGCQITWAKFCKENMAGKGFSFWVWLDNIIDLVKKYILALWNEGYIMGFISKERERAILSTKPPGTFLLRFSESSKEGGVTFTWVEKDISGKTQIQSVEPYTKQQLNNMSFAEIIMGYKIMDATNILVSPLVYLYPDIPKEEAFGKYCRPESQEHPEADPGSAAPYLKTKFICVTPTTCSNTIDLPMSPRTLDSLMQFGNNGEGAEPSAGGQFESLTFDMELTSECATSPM

Take `CCc1nccnc1C(=O)/C=C/c1ccccn1`: the Activity result in experiment [1] is “Dose-dependent-effect”.
In the case of `Cc1nccnc1C(=O)/C=C/c1cccc(C#N)c1`, the Activity was 2.64% in experiment [2], 9.69% in experiment [3], 11.68% in experiment [4] and 3.09% in experiment [5]. In addition, the inhibition result in experiment [6] and in experiment [7] was “Active” in each case. The result in experiment [8] was Active.

The values above are taken from ChEMBL document CHEMBL6114992, “Design, synthesis, biological evaluation, and mechanism of action of new pyrazines as anticancer agents in vitro and in vivo” (Bioorg Med Chem, 2025).
